Where “and” joins values, the source holds several entries; their conditions need not be identical. Equal values may be shown once.

Consider 52 compounds from the Deep4Chem optical property database.

This data set is described as follows: solvent given as SMILES.

Take `COc1cc2c(cc1OC)C1=C[C@H](c3ccccc3)C3(C(C#N)=C(C#N)N1CC2)c1ccccc1-c1ccccc13`: the absorption maximum (in ClCCl) turned out to be 310 nm.

`F[B-]1(F)n2c(cc3c4ccccc4oc32)C(c2ccccc2)=C2C=c3c(oc4ccccc34)=[N+]21`: the absorption maximum was found to be 586 nm (in C1CCCCC1), 581 nm (in CCOC(C)=O) and 579 nm (in CO).

In turn, `COC(=O)c1cc(=O)n(C)c2cc(-c3ccc4c(c3)OCCO4)sc12` registered an absorption maximum (in CC#N) of 398 nm and an absorption maximum (in ClCCl) of 402 nm.

For `CN1/C(=C/C=C(/C=C/c2sc3ccccc3[n+]2C)c2cccc(C(F)(F)F)c2)Sc2ccccc21`, the absorption maximum was found to be 645 nm (in CCO), 642 nm (in CO), 653 nm (in CS(C)=O) and 639 nm (in O).

As to `O=P1(c2ccccc2)c2cc(N3c4ccccc4Oc4ccccc43)ccc2-c2ccc(N3c4ccccc4Oc4ccccc43)cc21`, the absorption maximum (in Cc1ccccc1) amounted to 418 nm.

Turning to `CN(C)c1ccc(/C=C/c2ccc(-c3cc(-c4ccccn4)nc(-c4ccccn4)c3)cc2)cc1`, the absorption maximum (in C1CCOC1) is reported as 375 nm; the absorption maximum (in C1COCCO1) worked out at 369 nm; the absorption maximum (in CC#N) was found to be 379 nm; the absorption maximum (in CCO) is listed as 379 nm; the absorption maximum (in ClCCl) was determined as 381 nm.

Compound `COC(=O)c1[nH]c(-c2ccc([N+](=O)[O-])cc2)c2nnc3ccc(OC)cc3c12` came in with an absorption maximum (in ClCCl) of 436 nm.

In the case of `Cc1ccc2occ(CC(=O)NN)c2c1`, the absorption maximum by setting is: (in C1CCOC1) 292 nm; (in CC#N) 289 nm; (in CC(C)=O) 293 nm; (in CCCCO) 290 nm; (in CCCO) 281 nm; (in CCO) 283 nm. The absorption maximum reads like this: (in CCOC(C)=O) 296 nm; (in CN(C)C=O) 313 nm; (in CO) 279 nm; (in ClCCl) 284 nm.

`Cc1cccc2nc3c(=O)n(C)c(=O)nc-3n(C)c12`: the absorption maximum (in CC#N) came to 439 nm.

The compound `N#Cc1ccccc1N1c2sc3ccccc3c2Sc2c1sc1ccccc21` displayed an absorption maximum (in ClCCl) of 411 nm.

As to `c1ccc2c([SiH](c3c4ccccc4cc4ccccc34)c3c4ccccc4cc4ccccc34)c3ccccc3cc2c1`, the absorption maximum (in ClC(Cl)Cl) turned out to be 401 nm.

Consider `N#Cc1ccc(/C=C/c2ccc(C=C(c3ccccc3)c3ccccc3)cc2)cc1`, for which the absorption maximum (in C1CCOC1) is on record as 366 nm.

`CSc1ccc2c(c1)N(CCCN1CCN(C)CN1C)c1ccccc1S2`: the absorption maximum reads like this: (in CC#N) 316 nm; (in CO) 314 nm; (in O) 312 nm.

`CCCCCCCCN1c2ccc(C#Cc3ccc(OC)cc3)cc2Sc2cc(C=O)ccc21`: the absorption maximum is, setting by setting: (in C1CCOC1) 378 nm; (in CC#N) 380.01 nm; (in CCCCCC) 374 nm; (in CO) 351.11 nm; (in CS(C)=O) 383.45 nm; (in Cc1ccccc1) 383 nm. In addition, the absorption maximum (in ClC(Cl)Cl) is on record as 382.5 nm.

The compound `COC(=O)C1=C(C(=O)OC)C2(c3ccccc3-c3c(Br)cc(Br)cc32)C2(/C=C/c3ccc(Cl)cc3)c3cc(OC)c(OC)cc3CCN12` (stereo not given) yielded an absorption maximum (in ClCCl) of 328 nm.

As for `Cc1cc2cc(C)c3c4ccccc4[nH]c3c2s1`, under “in ClCCl”, the absorption maximum turned out to be 312 nm.

For the compound `O=C1c2cc(-c3ccccc3)ccc2-c2ccc(-c3ccccc3)cc21`, the absorption maximum (in C1CCOC1) was 337 nm.

In the case of `CC(C)Oc1ccc(C#Cc2cc3ccccc3oc2=O)cc1`, the absorption maximum (in CC#N) is listed as 356 nm.

Where the note is “in C1CCOC1”, `CCCCC1(CCCC)c2cc(C#Cc3ccc(/C=C(\C)c4ccccc4)cc3)ccc2-c2ccc(C#Cc3ccc(/C=C(\C)c4ccccc4)cc3)cc21` yielded an absorption maximum of 365 nm.

The compound `CC[n+]1c(-c2ccccc2)c2cc(-n3cccc3)ccc2c2ccc(N)cc21` returned an absorption maximum (in O) of 462 nm.

As to `C1=C(c2ccccc2)C(c2ccccc2)=CC1c1ccccc1`, where the note is “in C1CCOC1”, the absorption maximum stood at 290 nm.

Regarding `c1ccc2c(c1)-c1ccccc1C21c2cc(-c3ccc(-n4c5ccccc5c5ccccc54)cc3)ccc2Sc2ccc(-c3ccc(-n4c5ccccc5c5ccccc54)cc3)cc21`, the absorption maximum (in ClCCl) came out at 341 nm.

Regarding `COc1ccc(/C=C/C2=[O+][B-](F)(F)OC(/C=C/c3ccc(OC)c4ccccc34)=C2c2ccccc2)c2ccccc12`, the absorption maximum is, setting by setting: (in CC#N) 550 nm; (in CC(C)=O) 549 nm; (in CCOC(C)=O) 542 nm; (in CCOCC) 540 nm; (in ClC(Cl)(Cl)Cl) 542 nm; (in ClCCl) 556 nm.

Take `CCN(CC)c1ccc2c(c1)OC1=[N+](c3ccc(I)cc3)[B-](F)(F)n3c(nc4ccccc43)C1=C2`: under “in ClCCl”, the absorption maximum worked out at 496 nm.

Turning to `COc1cccc(-n2c(-c3ccc(O)cc3)nc(C)c2C)c1`, the absorption maximum runs as follows: (in CC#N) 288 nm; (in CCO) 292 nm; (in CO) 287 nm.

On to `O=C1C=C(Nc2ccc(F)c(F)c2)C(=O)c2ccccc21`, for which the absorption maximum (in CO) is on record as 454 nm.

Compound `CCCCn1c(-c2ccc(-c3ccc(-c4ccc(-c5n(CCCC)c6ccccc6[n+]5CCCC)cc4)cc3)cc2)[n+](CCCC)c2ccccc21` came in with an absorption maximum (in O) of 303 nm.

With `CC1=[N+]2C(=c3c4c5ccccc5cc5cccc(c6cc(C)n(c36)[B-]2(F)F)c54)C=C1`, the absorption maximum was found to be 584 nm (in C1CCOC1); 583 nm (in CCCCCC); 583 nm (in CO); 587 nm (in CS(C)=O); 584 nm (in ClC(Cl)Cl); 583 nm (in ClCCl).

On to `C=CC1CN2CCC1CC2[C@@H](OCc1ccccc1)c1ccnc2ccc(O)cc12` (stereo not given in full), for which the absorption maximum reads like this: (in C1CCOC1) 338 nm; (in CC#N) 335 nm; (in CCCC#N) 337 nm; (in Cc1ccccc1) 335 nm; (in ClCCl) 334 nm.

On to `COc1ccc(-c2c3nc(c(-c4ccc(OC)cc4)c4ccc([nH]4)c(-c4ccc(OC)cc4)c4nc(c(-c5ccc(OC)cc5)c5ccc2[nH]5)C=C4N2CCOCC2)C=C3)cc1`, for which the absorption maximum (in CS(C)=O) was 660 nm.

`Cn1c(-c2ccc(-c3nc(-c4ccccc4)c(-c4ccccc4)n3C)cc2)nc(-c2ccccc2)c1-c1ccccc1`: the absorption maximum (in CC#N) is 365 nm and 334 nm.

Compound `CC[n+]1nc2cc3c4c(c2c2cc(F)ccc21)CCCN4CCC3` gave an absorption maximum (in O) of 494 nm.

For the compound `CCCc1ccc(C#Cc2cc(C#Cc3ccc(CCC)cc3)c3ccc4c(C#Cc5ccc(CCC)cc5)cc(C#Cc5ccc(CCC)cc5)c5ccc2c3c54)cc1`, the absorption maximum (in ClCCl) was determined as 470 nm.

As to `N#Cc1ncc(-c2c3ccccc3c(-c3cnc(C#N)nc3)c3ccccc23)cn1`, the absorption maximum reads like this: (in CCO) 395 nm; (in ClCCl) 397 nm.

For the setting “in ClCCl”, `O=P1(c2ccccc2)C(c2ccc(C(F)(F)F)cc2)=Cc2cc3ccccc3cc21` (stereo not given) came in with an absorption maximum of 387 nm.

Under “in ClCCl”, `CC(C)[Si](C#Cc1c2cc3ccccc3cc2c(C#C[Si](C)(C)C)c2cc3ccccc3cc12)(C(C)C)C(C)C` yielded an absorption maximum of 642 nm.

As to `COc1ccc(-c2c3nc(cc4ccc([nH]4)c(-c4ccc(OC)c(OCC(=O)O)c4)c4nc(cc5ccc2[nH]5)C=C4)C=C3)cc1OCC(=O)O`, the absorption maximum (in CS(C)=O) was 633 nm.

With `Cc1cc(-c2ccc(C(C)(C)C)cc2)c2nsnc2c1-c1ccc(N(c2ccccc2)c2ccccc2)cc1`, the absorption maximum (in ClCCl) is on record as 402 nm.

For the setting “in CCO”, `CC(C)(C)OC(=O)NCC(=O)OCc1ccc2c3cccc4cccc(c5cccc1c52)c43` came in with an absorption maximum of 439 nm.

Where the note is “in Cc1ccccc1”, `Cc1cc(-c2nnc(-c3c(C(C)C)cc(C(C)C)cc3C(C)C)o2)ccc1-n1c2ccccc2c2ccccc21` had an absorption maximum of 339 nm.

`CCC1=C(C)C2=C(/C=C/c3ccc(OC)cc3)c3c(C)c(CC)c(C)n3[B-](F)(F)[N+]2=C1C` gave an absorption maximum (in ClCCl) of 529 nm.

As for `c1cc2c(N3CCCCC3)c3ccc(=[N+]4CCCCC4)cc-3oc2cc1N1CCCCC1`, the absorption maximum (in ClCCl) worked out at 491 nm.

For `COc1ccc(-c2nc(-c3ccccc3O)c(-c3ccccc3O)n2-c2ccc(C)cc2)cc1`, the absorption maximum was 305 nm (in C1CCOC1), 308 nm (in CS(C)=O), 304 nm (in ClC(Cl)Cl) and 304 nm (in ClCCl).

Take `CCC1=C(C)C2=C(C)c3cccn3[B-](F)(F)[N+]2=C1C`: the absorption maximum by setting is: (in C1CCCCC1) 504 nm; (in CC(C)=O) 495 nm; (in CCO) 497 nm; (in CCOC(C)=O) 496 nm; (in CO) 495.5 nm; (in OCC(F)(F)F) 492 nm.

On to `CCCC1=Cc2nc1ccc1[nH]c(cc1CCOC)c1nc(ccc3[nH]c2cc3CCC)C(CCOC)=C1`, for which, for the setting “in Cc1ccccc1”, the absorption maximum is 638 nm.

`F[B-]1(F)Oc2ccccc2-c2n(-c3ccc(C(F)(F)F)cc3)c(-c3ccccc3)c(-c3ccccc3)[n+]21` came in with an absorption maximum (in C1CCOC1) of 327 nm.

Where the note is “in C1CCOC1”, `CCC1(CC)c2cc(C#Cc3cccs3)ccc2-c2c1c1c(c3c2C(CC)(CC)c2cc(C#Cc4cccs4)ccc2-3)C(CC)(CC)c2cc(C#Cc3cccs3)ccc2-1` displayed an absorption maximum of 362 nm.

`COc1cc(/C=C2\C=C(c3ccccc3)C=C2c2ccccc2)cc(OC)c1` came in with an absorption maximum (in C1CCOC1) of 436 nm.

Under “in ClC(Cl)Cl”, `COc1cc(OC)c2c(c1)c1cc3oc(=O)cc(C)c3cc1c1cc(OC)cc(OC)c12` had an absorption maximum of 390 nm.

In turn, `COc1ccc(-c2nnc(-c3cc(-c4nnc(-c5ccc(OC)cc5)o4)c(-n4c5ccccc5c5ccccc54)cc3-n3c4ccccc4c4ccccc43)o2)cc1` came in with an absorption maximum (in Cc1ccccc1) of 371 nm.

Take `CCOC(=O)C1=CN(c2ccccc2)C=CC1c1ccccc1` (stereo not given): the absorption maximum by setting is: (in C1CCOC1) 344 nm; (in CO) 348 nm.

On to `Oc1ccc(-c2nc(-c3ccccc3)c(-c3ccccc3)[nH]2)cc1`, for which the absorption maximum (in CO) amounted to 295 nm.
